Each structure is given as a SMILES string.

This assay concerns the target DNA damage-binding protein 1/Protein cereblon (Homo sapiens, UniProt Q96SW2). On the procedure: The binding potency was determined using H-TRF assay technology (Perkin Elmer). Compounds were serially diluted in DMSO and 0.2 μL volume was transferred to white 384-well plate.

DNA damage-binding protein 1/Protein cereblon, sequence (Q16531 whole entry): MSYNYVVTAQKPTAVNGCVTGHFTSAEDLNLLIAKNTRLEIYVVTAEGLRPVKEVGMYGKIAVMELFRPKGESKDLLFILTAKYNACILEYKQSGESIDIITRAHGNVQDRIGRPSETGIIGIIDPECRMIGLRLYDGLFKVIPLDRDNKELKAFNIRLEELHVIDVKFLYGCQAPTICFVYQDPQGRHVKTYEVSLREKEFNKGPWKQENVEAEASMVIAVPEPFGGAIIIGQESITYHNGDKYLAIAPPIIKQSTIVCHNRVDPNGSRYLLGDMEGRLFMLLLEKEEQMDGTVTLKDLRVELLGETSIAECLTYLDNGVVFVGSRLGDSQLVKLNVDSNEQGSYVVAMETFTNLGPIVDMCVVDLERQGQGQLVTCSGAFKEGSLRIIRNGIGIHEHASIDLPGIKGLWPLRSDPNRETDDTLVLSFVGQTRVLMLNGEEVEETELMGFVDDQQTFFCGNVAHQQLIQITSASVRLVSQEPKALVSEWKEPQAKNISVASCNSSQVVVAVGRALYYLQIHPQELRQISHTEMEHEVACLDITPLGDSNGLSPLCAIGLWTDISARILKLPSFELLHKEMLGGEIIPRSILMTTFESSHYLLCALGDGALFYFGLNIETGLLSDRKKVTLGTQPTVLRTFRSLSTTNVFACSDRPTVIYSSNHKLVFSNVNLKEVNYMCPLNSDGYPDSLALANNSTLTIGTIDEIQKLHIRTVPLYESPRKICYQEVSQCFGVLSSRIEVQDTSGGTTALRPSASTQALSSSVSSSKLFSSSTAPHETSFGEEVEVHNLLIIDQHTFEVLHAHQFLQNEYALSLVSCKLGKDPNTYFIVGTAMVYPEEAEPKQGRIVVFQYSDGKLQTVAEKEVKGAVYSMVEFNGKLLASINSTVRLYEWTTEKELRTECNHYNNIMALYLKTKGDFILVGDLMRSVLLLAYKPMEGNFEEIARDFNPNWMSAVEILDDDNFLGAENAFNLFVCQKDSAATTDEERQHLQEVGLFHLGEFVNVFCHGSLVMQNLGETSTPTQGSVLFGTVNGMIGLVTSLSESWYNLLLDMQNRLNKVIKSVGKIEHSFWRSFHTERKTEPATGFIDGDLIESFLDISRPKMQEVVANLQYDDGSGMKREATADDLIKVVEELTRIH
DNA damage-binding protein 1/Protein cereblon, sequence (Q96SW2 whole entry): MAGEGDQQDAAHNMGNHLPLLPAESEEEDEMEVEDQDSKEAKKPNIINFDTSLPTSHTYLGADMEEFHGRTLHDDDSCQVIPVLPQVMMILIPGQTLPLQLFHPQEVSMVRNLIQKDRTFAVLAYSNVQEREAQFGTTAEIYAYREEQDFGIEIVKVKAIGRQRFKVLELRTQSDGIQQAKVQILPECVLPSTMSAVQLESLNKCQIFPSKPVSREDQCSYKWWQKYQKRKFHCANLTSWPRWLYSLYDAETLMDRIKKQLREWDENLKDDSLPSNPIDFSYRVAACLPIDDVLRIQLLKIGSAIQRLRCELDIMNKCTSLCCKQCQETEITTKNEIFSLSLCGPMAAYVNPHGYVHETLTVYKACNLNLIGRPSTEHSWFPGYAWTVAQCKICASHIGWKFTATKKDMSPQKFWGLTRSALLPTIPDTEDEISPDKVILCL

Broadly, the IC50 is the concentration at which inhibition is half-maximal. High values mean lower potency, low ones higher potency. Consider `C[C@@H]1Cc2c([nH]c3ccccc23)[C@@H](c2cnc(N3CCC(N4CCN(c5ccc(NC6CCC(=O)NC6=O)cc5F)CC4)CC3)nc2)N1CC(C)(C)F` (stereo partly specified) [US20260007681, Compound A2], for which the IC50 is 500 to 5000 nM.

The values above are taken from BindingDB's records for patent US20260007681 (University Of Michigan, 2026).
